Results on 14 compounds are retold here after BindingDB's records for doi:10.1021/acs.jmedchem.5b01559 (University of Siena, 2016).

Each structure is given as a SMILES string.

The target of the assay is Cannabinoid receptor 2 (Homo sapiens, UniProt P34972). As to the kind of experiment: Displacement of [3H]-CP-55940 from human recombinant CB2 receptor expressed in HEK293 cells after 90 mins by Competition binding assay. (Displacement assays read how much labelled ligand stays bound in the presence of the test substance.)
Chain of Cannabinoid receptor 2 (P34972 whole entry): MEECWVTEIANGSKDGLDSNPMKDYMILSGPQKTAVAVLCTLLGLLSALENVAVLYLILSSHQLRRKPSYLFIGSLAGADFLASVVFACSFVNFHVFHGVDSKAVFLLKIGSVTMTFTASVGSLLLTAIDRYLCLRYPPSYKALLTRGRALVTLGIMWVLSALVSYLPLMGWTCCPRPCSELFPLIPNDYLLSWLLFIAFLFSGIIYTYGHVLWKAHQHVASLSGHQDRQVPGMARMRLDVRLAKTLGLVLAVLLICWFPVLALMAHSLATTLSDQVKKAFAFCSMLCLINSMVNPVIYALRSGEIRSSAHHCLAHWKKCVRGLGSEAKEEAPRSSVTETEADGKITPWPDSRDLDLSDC

As usually defined, the Ki is the equilibrium dissociation constant of an inhibitor or competing ligand from its target. `CCCCCn1c(=O)c(C(=O)NC23CC4CC(CC(C4)C2)C3)c(O)c2cc(C(C)C)ccc21`: the Ki amounted to 0.53 nM.
The figure for `CCCCCn1c(=O)c(C(=O)NC23CC4CC(CC(C4)C2)C3)c(O)c2ccc(F)cc21` is 0.93 nM; for `CC(C)c1ccc2c(c1)c(=O)c(C(=O)NC13CC4CC(CC(C4)C1)C3)cn2CCN(C)C` it is 146 nM.
The figure for `COCCOCn1cc(C(=O)NC23CC4CC(CC(C4)C2)C3)c(=O)c2cc(C(C)C)ccc21` is 480 nM; for `CC(C)c1ccc2c(c1)c(=O)c(C(=O)NC13CC4CC(CC(C4)C1)C3)cn2CCN1CCS(=O)(=O)CC1` it is 1930 nM.
To `CN(C)CCn1cc(C(=O)NC23CC4CC(CC(C4)C2)C3)c(=O)c2ccc(F)cc21` belongs 60 nM; to `COCCOCn1cc(C(=O)NC23CC4CC(CC(C4)C2)C3)c(=O)c2ccc(F)cc21`, 56 nM; to `O=C(NC12CC3CC(CC(C3)C1)C2)c1cn(CCN2CCS(=O)(=O)CC2)c2cc(F)ccc2c1=O`, 246 nM.
For `CC(C)c1cc2c(=O)c(C(=O)NC34CC5CC(CC(C5)C3)C4)cn(CCN(C)C)c2cc1F`, the Ki was found to be 11 nM.
The figure for `CCCCCn1c(=O)c(C(=O)NC23CC4CC(CC(C4)C2)C3)c(O)c2cc(C(C)C)c(F)cc21` is 66 nM; for `O=C(NCC1CCCCC1)c1c(O)c2ccccc2n(CCCCO)c1=O` it is 41 nM; for `O=C(NCc1ccc(F)cc1)c1c(O)c2cc(-c3ccco3)ccc2n(CCCCO)c1=O` it is 253 nM.
To `COc1ccc(CNC(=O)c2c(O)c3cc(-c4cccs4)ccc3n(CCCCO)c2=O)cc1` belongs 2240 nM.
As to `CCCCCn1c(=O)c(C(=O)NCc2ccc(OC)cc2)c(O)c2cc(-c3cccs3)ccc21`, the Ki was 20 nM.
